US11572590B2, “Methods for evaluating tumor cell spheroids using 3D microfluidic cell culture device” (Dana-Farber Cancer Institute, Inc., priority 2017, dated 2023)
Where two headings read alike, the source gives them in different places.

What was measured:
Assay in all cases: SelectScreen Kinase Profiling, single point inhibition and IC50 for off-target kinases
Format in all cases: biochemical
off-target kinases [1] = target: off-target kinases (Homo sapiens, UniProt P22694); settings: PRKACB (PRKAC beta), LanthaScreen Binding
off-target kinases [2] = target: off-target kinases (Homo sapiens, UniProt P41240); settings: CSK, ZLYTE, ATP Km app
off-target kinases [3] = target: off-target kinases (Homo sapiens, UniProt P42684); settings: ABL2 (Arg), ZLYTE, ATP Km app
off-target kinases [4] = target: off-target kinases (Homo sapiens, UniProt P42685); settings: FRK (PTK5), ZLYTE, ATP Km app
off-target kinases [5] = target: T1, off-target kinases (Homo sapiens, UniProt Q08881); settings: ITK, ZLYTE, ATP Km app
T1 sequence (Q08881 1-620): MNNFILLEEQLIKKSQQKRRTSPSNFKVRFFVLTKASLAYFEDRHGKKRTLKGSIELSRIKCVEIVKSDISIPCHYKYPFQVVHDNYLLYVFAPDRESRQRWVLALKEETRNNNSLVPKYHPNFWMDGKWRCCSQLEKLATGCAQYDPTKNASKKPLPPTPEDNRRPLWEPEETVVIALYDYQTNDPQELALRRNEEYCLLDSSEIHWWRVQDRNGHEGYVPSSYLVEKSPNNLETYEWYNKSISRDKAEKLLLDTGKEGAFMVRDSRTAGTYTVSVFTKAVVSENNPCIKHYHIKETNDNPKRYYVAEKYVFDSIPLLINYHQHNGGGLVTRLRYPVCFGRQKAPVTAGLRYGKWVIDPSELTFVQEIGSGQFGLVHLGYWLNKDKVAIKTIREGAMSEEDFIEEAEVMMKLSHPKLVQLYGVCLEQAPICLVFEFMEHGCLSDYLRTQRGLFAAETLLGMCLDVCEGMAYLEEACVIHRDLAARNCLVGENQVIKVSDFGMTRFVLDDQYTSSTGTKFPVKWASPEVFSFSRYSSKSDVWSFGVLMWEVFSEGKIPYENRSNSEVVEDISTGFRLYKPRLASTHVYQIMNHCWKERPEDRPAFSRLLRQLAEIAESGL

off-target kinases [6] = target: off-target kinases (Homo sapiens, UniProt Q13554); settings: CAMK2B (CaMKII beta), ZLYTE, ATP Km app
off-target kinases [7] = target: off-target kinases (Homo sapiens, UniProt Q13555); settings: CAMK2G (CaMKII gamma), LanthaScreen Binding
off-target kinases [8] = target: off-target kinases (Homo sapiens, UniProt Q15349); settings: RPS6KA2 (RSK3), ZLYTE, ATP Km app
off-target kinases [9] = target: off-target kinases (Homo sapiens, UniProt Q8N568); settings: DCAMKL2 (DCK2), ZLYTE, ATP Km app
off-target kinases [10] = target: off-target kinases (Homo sapiens, UniProt Q9HC98); settings: NEK6, ZLYTE, ATP Km app
Chain of off-target kinases (Homo sapiens, UniProt Q9HC98) (Q9HC98 whole entry): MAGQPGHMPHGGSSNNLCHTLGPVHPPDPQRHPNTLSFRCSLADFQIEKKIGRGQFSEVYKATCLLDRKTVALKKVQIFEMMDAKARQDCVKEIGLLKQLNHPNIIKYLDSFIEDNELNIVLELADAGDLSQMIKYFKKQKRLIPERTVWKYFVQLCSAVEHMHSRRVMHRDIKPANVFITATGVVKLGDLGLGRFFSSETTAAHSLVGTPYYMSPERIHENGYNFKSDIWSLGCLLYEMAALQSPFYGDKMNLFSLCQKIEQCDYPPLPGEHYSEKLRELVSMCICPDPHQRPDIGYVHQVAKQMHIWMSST

Chain of off-target kinases (Homo sapiens, UniProt Q13554) (Q13554 whole entry): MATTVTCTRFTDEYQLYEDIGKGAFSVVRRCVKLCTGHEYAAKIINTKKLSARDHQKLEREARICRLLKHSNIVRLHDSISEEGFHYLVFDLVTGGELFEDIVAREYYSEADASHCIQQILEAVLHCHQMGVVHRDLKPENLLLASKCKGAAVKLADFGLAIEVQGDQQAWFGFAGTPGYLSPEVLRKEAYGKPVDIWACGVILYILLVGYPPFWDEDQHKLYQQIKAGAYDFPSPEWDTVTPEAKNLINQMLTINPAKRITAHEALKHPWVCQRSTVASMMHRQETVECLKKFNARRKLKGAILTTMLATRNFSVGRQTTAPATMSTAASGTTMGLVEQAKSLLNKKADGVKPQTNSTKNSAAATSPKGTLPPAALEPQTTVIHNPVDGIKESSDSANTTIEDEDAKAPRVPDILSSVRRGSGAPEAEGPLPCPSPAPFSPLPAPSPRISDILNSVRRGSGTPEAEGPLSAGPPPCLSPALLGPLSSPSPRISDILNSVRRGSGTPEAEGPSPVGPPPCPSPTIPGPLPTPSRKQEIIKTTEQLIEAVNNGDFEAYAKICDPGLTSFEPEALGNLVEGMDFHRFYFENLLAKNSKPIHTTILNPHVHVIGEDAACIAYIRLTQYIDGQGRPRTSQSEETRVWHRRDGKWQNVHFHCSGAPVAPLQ
Chain of off-target kinases (Homo sapiens, UniProt Q8N568) (Q8N568 whole entry): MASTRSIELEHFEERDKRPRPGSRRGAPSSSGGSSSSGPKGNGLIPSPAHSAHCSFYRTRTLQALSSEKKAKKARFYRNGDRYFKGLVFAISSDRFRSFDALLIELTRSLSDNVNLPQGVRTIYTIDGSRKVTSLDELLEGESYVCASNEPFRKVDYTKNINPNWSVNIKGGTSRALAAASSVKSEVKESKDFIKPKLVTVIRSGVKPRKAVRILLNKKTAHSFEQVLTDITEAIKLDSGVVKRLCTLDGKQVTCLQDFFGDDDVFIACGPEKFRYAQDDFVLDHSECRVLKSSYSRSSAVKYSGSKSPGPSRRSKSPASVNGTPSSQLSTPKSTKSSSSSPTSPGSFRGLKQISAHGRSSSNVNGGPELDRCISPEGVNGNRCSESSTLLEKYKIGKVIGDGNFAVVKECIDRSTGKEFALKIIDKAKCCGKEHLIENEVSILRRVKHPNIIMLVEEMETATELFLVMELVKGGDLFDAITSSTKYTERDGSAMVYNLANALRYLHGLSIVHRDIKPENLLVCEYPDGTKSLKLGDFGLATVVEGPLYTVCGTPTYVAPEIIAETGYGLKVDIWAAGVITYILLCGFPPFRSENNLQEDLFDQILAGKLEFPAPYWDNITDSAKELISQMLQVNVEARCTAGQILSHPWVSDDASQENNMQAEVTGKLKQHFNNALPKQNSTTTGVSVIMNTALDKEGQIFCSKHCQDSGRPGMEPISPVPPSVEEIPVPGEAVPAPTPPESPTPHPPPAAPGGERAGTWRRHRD
Chain of off-target kinases (Homo sapiens, UniProt P41240) (P41240 whole entry): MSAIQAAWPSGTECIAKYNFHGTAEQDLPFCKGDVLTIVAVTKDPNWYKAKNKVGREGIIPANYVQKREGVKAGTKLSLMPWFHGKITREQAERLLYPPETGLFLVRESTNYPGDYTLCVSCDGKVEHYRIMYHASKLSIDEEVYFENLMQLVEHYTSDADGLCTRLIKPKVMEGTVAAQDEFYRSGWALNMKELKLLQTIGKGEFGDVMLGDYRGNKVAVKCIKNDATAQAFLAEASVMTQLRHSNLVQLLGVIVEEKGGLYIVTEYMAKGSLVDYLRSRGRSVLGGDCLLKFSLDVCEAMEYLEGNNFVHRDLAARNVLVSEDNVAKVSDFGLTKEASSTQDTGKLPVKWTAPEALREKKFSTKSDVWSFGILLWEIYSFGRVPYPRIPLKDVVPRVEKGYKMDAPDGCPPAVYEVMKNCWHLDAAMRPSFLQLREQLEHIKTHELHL
Chain of off-target kinases (Homo sapiens, UniProt Q13555) (Q13555 whole entry): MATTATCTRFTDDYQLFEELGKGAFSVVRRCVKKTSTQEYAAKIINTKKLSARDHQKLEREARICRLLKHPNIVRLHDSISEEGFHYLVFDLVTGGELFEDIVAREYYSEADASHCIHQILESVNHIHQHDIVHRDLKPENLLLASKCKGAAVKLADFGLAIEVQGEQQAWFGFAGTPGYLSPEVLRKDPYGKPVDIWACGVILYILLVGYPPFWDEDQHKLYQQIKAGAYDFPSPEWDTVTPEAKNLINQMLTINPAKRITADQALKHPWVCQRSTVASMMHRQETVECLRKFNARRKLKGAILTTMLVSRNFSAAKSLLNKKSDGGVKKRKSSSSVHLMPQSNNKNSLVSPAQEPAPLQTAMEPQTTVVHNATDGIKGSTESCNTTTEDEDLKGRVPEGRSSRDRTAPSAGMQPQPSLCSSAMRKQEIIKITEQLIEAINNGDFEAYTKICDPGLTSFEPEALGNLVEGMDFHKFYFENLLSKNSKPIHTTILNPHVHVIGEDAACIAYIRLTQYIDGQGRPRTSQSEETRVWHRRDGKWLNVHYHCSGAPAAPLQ
Chain of off-target kinases (Homo sapiens, UniProt P42685) (P42685 whole entry): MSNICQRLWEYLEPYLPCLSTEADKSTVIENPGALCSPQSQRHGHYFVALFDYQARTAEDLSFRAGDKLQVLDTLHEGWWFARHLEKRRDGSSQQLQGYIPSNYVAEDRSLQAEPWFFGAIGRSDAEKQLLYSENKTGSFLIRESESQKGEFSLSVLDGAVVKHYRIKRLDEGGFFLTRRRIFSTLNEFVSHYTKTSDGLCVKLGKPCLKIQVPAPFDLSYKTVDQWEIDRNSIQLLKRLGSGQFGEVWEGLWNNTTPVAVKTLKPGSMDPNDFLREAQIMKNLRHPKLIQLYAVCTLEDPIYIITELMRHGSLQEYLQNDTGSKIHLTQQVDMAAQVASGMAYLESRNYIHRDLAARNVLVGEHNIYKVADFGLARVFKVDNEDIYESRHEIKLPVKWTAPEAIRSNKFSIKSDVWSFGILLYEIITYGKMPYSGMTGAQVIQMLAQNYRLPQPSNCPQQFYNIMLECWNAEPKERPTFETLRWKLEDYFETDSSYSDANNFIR
Chain of off-target kinases (Homo sapiens, UniProt Q15349) (Q15349 whole entry): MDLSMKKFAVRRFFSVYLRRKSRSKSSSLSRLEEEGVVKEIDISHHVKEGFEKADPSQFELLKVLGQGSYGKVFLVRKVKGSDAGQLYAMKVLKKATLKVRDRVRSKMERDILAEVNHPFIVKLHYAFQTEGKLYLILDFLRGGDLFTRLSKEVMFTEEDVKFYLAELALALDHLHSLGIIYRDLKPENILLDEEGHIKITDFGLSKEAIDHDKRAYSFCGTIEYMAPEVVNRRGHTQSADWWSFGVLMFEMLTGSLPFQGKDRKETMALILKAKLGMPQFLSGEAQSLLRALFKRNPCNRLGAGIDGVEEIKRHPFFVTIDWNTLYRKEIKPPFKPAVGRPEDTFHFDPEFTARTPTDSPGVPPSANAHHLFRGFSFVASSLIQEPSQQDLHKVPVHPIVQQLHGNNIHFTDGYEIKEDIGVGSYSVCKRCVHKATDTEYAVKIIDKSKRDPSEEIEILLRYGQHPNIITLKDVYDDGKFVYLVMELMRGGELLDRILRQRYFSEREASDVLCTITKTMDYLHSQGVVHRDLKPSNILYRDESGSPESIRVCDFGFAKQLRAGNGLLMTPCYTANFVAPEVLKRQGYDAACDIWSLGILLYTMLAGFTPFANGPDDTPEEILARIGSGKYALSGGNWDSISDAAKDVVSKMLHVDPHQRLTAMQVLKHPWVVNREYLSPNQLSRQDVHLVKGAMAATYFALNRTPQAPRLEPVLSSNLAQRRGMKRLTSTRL

Compound N#Cc1cc(-c2ncnc(Nc3ccc(N4CCN(C5COC5)CC4)cc3)n2)ccc1OC1CCOCC1 [Compound 1, 5-(4-((4-(4-(oxetan-3-yl)piperazin-1-yl)phenyl)amino)-1,3,5-triazin-2-yl)-2-((tetrahydro-2H-pyran-4-yl)oxy)benzonitrile] has an inhibition (off-target kinases [1]; read-out: % Inhibition 1) of 16%, an inhibition (off-target kinases [1]; read-out: % Inhibition 2) of 18% and an inhibition (off-target kinases [1]; read-out: % Inhibition Avg) of 17%. For the same compound, the inhibition (off-target kinases [2]; read-out: % Inhibition 1) was 13%, the inhibition (off-target kinases [2]; read-out: % Inhibition 2) was 10% and the inhibition (off-target kinases [2]; read-out: % Inhibition Avg) was 12%. For the same compound, the inhibition (off-target kinases [3]; read-out: % Inhibition 1) was 40%, the inhibition (off-target kinases [3]; read-out: % Inhibition 2) was 39% and the inhibition (off-target kinases [3]; read-out: % Inhibition Avg) was 40%. For the same compound, the inhibition (off-target kinases [4]; read-out: % Inhibition 1) was 11%, the inhibition (off-target kinases [4]; read-out: % Inhibition 2) was 13% and the inhibition (off-target kinases [4]; read-out: % Inhibition Avg) was 12%. For the same compound, the inhibition (off-target kinases [5]; read-out: % Inhibition 1) was 37%, the inhibition (off-target kinases [5]; read-out: % Inhibition 2) was 32% and the inhibition (off-target kinases [5]; read-out: % Inhibition Avg) was 34%. The inhibition (off-target kinases [6]; read-out: % Inhibition 1) was 11%, the inhibition (off-target kinases [6]; read-out: % Inhibition 2) was 8% and the inhibition (off-target kinases [6]; read-out: % Inhibition Avg) was 10%. For the same compound, the inhibition (off-target kinases [7]; read-out: % Inhibition 1) was 18%, the inhibition (off-target kinases [7]; read-out: % Inhibition 2) was 19% and the inhibition (off-target kinases [7]; read-out: % Inhibition Avg) was 18%. For the same compound, the inhibition (off-target kinases [8]; read-out: % Inhibition 1) was 17%, the inhibition (off-target kinases [8]; read-out: % Inhibition 2) was 13% and the inhibition (off-target kinases [8]; read-out: % Inhibition Avg) was 15%. For the same compound, the inhibition (off-target kinases [9]; read-out: % Inhibition 1) was 11%, the inhibition (off-target kinases [9]; read-out: % Inhibition 2) was 3% and the inhibition (off-target kinases [9]; read-out: % Inhibition Avg) was 7%. It also gave an inhibition (off-target kinases [10]; read-out: % Inhibition 1) of 12%, an inhibition (off-target kinases [10]; read-out: % Inhibition 2) of 6% and an inhibition (off-target kinases [10]; read-out: % Inhibition Avg) of 9%.
